{
  "source": "patent US10898540B2",
  "about": "“Peptide having effects of increasing telomerase activity and extending telomere, and composition containing same” (GEMVAX & KAEL CO., LTD., priority 2016, dated 2021)",
  "key": {"[1]": {"tested_on": "telomerase", "assay": "Telomerase activity (TeloTAGGG telomerase PCR ELISA, RTA) in brain tissue of 3xTg-AD mice after subcutaneous administration", "assay_type": "in vivo, mouse", "details": "for increase of telomerase activity compared with saline-administered group (Group 1): s.c. three times a week for 2 months, whole brain tissue at age 15 months", "excerpt": "(§1) To test the PEP1 therapeutic effect on Alzheimer's disease, Alzheimer transgenic mice (3×Tg-AD) were purchased from Jackson Laboratory.\n(§2) To investigate the effect of PEP1 according to concentration after breeding, experimental animals were divided and then administered experimental materials as follows. As a positive control material, donepezil was used, the experimental animals were divided into five groups, and each group included 10 mice. Administered materials and doses per group are as follows. • Group 1: Saline • Group 2: 0.01 mg/kg ofPEP1 • Group 3: 0.1 mg/kg of PEP1 • Group 4: 1 mg/kg of PEP1 • Group 5: 1 mg/kg of donepezil\n(§3) PEP1, saline and donepezil were subcutaneously injected at each concentration three times a week for 2 months from the 12th month, one month later (at the age of 15 months), the mice (10 mice per group) were anesthetized, and reperfusion was carried out through the heart of each mouse using 0.9% saline to remove blood. Afterward, the brain was extracted, and separated into the hippocampus and the whole brain area, thereby obtaining brain tissue, and the tissue was rapidly frozen using liquid nitrogen.\nTo investigate PEP1-induced telomerase activity, TeloTAGGG telomerase PCR ELISAPLUS (Cat #12 013 789 001, Roche Boehringer-Mannheim, IN, USA) was used, the entire brain tissues prepared according to the method of Example 2-1 were pulverized, 200 μl of an ice-cold lysis buffer was added to […] of the tissue, incubated on ice for 30 minutes, and centrifuged at 16,000×g for 20 minutes to isolate 175 μl of a protein. 10 μg of the protein was quantified and mixed with a reaction mixture and an internal standard, followed by PCR (see FIG. 4). Hybridization was carried out, a sample was added to a specially-coated MP module to perform a reaction, and then absorbance was measured at 450 or 690 nm using an ELISA reader. Relative telomerase activities (RTAs) were calculated using a calculation formula (see FIG. 3)."}, "[2]": {"tested_on": "telomere", "assay": "Telomere length (TeloTAGGG telomere length assay, Southern blot) in brain tissue of 3xTg-AD mice after subcutaneous administration", "assay_type": "in vivo, mouse", "details": "3xTg-AD mice, 0.01, 0.1 and 1 mg/kg s.c. three times a week for 2 months, whole brain tissue, FIG. 2", "excerpt": "as §1, §2\nas §3, with “nitrogen. […]” for “nitrogen.”"}},
  "data": [
    {"sequence": "EARPALLTSRLRFIPK (hTERT derived peptide fragment) [PEP1, hTERT-derived peptide consisting of 16 amino acids, telomerase location [611-626], made by Fmoc solid phase synthesis]", "values": [
      {"measurement": "increase of telomerase activity compared with saline-administered group (Group 1)", "setting": "[1]; 0.1 mg/kg (Group 3)", "value": 266, "unit": "%"},
      {"measurement": "increase of telomerase activity compared with saline-administered group (Group 1)", "setting": "[1]; Group 4 (dose printed as 'mg/kg'; Group 4 = 1 mg/kg)", "value": 370, "unit": "%"},
      {"measurement": "telomerase activity compared with donepezil-administered group (Group 5)", "setting": "[1]; Group 4 vs donepezil Group 5, s.c. three times a week for 2 months, FIG. 1", "value": "statistically significant increase"},
      {"measurement": "telomere length", "setting": "[2]", "value": "increased according to PEP1 administration concentration"}
    ]}
  ]
}
